Laboratory results: US9441012B2, “Fluorinated epoxyketone-based compounds and uses thereof as proteasome inhibitors” (FLUORINOV PHARMA INC., priority 2012, dated 2016)

Experiments:
Experiment in all cases: NCI 60 human tumor cell line screen (SRB)
Format in all cases: cell-based
[1] = system: TK-10; details: TK-10 (Renal Cancer); 48 h
Excerpt: (§1) Representative compounds of Formula I were screened using the National Cancer Institute (NCI) screening panel, which consists of a panel of 60 different human tumor cell lines, representing leukemia [CCRF-CEM, HL-60 (TB), K-562, MOLT-4, SR], melanoma [LOX IMVI, MALME-3M, M14, SMDA-MB-435, SK-MEL-2, SK-MEL-28, SK-MEL-5, UACC-257 and UACC-62] and cancers of the lung [A549/ATCC, EKVX, HOP-62, HOP-93, NCI-H226, NCI-H23, NCI-H322M, NCI-H460], colon [COLO 205, HCT-116, HCT-15, HT29, KM12, SW-620], brain [SF-268, SF-295, SF-539, SNB-19, SNB-75, U251], ovary [IGROV1, OVCAR-3, OVCAR-4, OVCAR-5, OVCAR-8, NCI/ADR-RES, SK-OV-3], breast [MCF7, MDA-MB-231, BT-549, T-47D, MDA-MB-468], prostate [PC-3, DU-145], and renal[786-0, A498, ACHN, CAKI-1, RXF-393, SN12C, TK-10, UO-31] cancers.
(§2) After 24 h, two plates of each cell line are fixed in situ with TCA, to represent a measurement of the cell population for each cell line at the time of drug addition (Tz). Experimental drugs are solubilised in dimethyl sulfoxide at 400-fold the desired final maximum test concentration and stored frozen prior to use. At the time of drug addition, an aliquot of frozen concentrate is thawed and diluted to twice the desired final maximum test concentration with complete medium containing 50 μg/ml gentamicin. Additional four, 10-fold or ½ log serial dilutions are made to provide a total of five drug concentrations plus control. Aliquots of 100 μl of these different drug dilutions are added to the appropriate microtiter wells already containing 100 μl of medium, resulting in the required final drug concentrations.
(§3) Following drug addition, the plates are incubated for an additional 48 h at 37° C., 5% CO2, 95% air, and 100% relative humidity. For adherent cells, the assay is terminated by the addition of cold TCA (trichloroacetic acid). Cells are fixed in situ by the gentle addition of 50 μl of cold 50% (w/v) TCA (final concentration, 10% TCA) and incubated for 60 minutes at 4° C. The supernatant is discarded, and the plates are washed five times with tap water and air dried. Sulforhodamine B (SRB) solution (100 μl) at 0.4% (w/v) in 1% acetic acid is added to each well, and plates are incubated for 10 minutes at room temperature. After staining, unbound dye is removed by washing five times with 1% acetic acid and the plates are air dried. Bound stain is subsequently solubilised with 10 mM trizma base, and the absorbance is read on an automated plate reader at a wavelength of 515 nm. For suspension cells, the methodology is the same except that the assay is terminated by fixing settled cells at the bottom of the wells by gently adding 50 μl of 80% TCA (final concentration, 16% TCA). Using the seven absorbance measurements [time zero, (Tz), control growth, (C), and test growth in the presence of drug at the five concentration levels (Ti)], the percentage growth is calculated at each of the drug concentration levels. Percentage growth inhibition is calculated as: [(Ti−Tz)/(C−Tz)]×100 for concentrations in which Ti>/=Tz and [(Ti−Tz)/Tz]×100 for concentrations in which Ti<Tz.
(§4) Three dose response parameters are calculated for each experimental agent. Growth inhibition of 50% (GI50) is calculated from [(Ti−Tz)/(C−Tz)]100=50, which is the drug concentration resulting in a 50% reduction in the net protein increase (as measured by SRB staining) in control cells during the drug incubation. The drug concentration resulting in total growth inhibition (TGI) is calculated from Ti=Tz. The LC50 (concentration of drug resulting in a 50% reduction in the measured protein at the end of the drug treatment as compared to that at the beginning) indicating a net loss of cells following treatment is calculated from [(Ti−Tz)/Tz]×100=−50. Values are calculated for each of these three parameters if the level of activity is reached. However, if the effect is not reached or is exceeded, the value for that parameter is expressed as greater or less than the maximum or minimum concentration tested.

[2] = system: MCF7; details: MCF7 (Breast Cancer); 48 h
Excerpt: as §1, §2, §3, §4

[3] = system: NCI-H226; details: NCI-H226 (Non-Small Cell Lung Cancer); 48 h
Excerpt: as §1, §2, §3, §4

[4] = system: HS 578T; details: HS 578T (Breast Cancer); 48 h
Excerpt: as §1, §2, §3, §4

[5] = system: PC-3; details: PC-3 (Prostate Cancer); 48 h
Excerpt: as §1, §2, §3, §4

[6] = system: SK-MEL-5; details: SK-MEL-5 (Melanoma); 48 h
Excerpt: as §1, §2, §3, §4

[7] = system: MDA-MB-468; details: MDA-MB-468 (Breast Cancer); 48 h
Excerpt: as §1, §2, §3, §4

[8] = system: UACC-257; details: UACC-257 (Melanoma); 48 h
Excerpt: as §1, §2, §3, §4

[9] = system: NCI-H23; details: NCI-H23 (Non-Small Cell Lung Cancer); 48 h
Excerpt: as §1, §2, §3, §4

[10] = system: K-562; details: K-562 (Leukemia); 48 h
Excerpt: as §1, §2, §3, §4

[11] = system: ACHN; details: ACHN (Renal Cancer); 48 h
Excerpt: as §1, §2, §3, §4

[12] = system: A498; details: A498 (Renal Cancer); 48 h
Excerpt: as §1, §2, §3, §4

SMILES: CC(C)C[C@H](NC(=O)[C@H](Cc1ccccc1)NC(=O)[C@H](COC(F)F)NC(=O)CN1CCOCC1)C(=O)[C@@]1(C)CO1 [Example 25, (2S)-2-[[(2S)-3-(difluoromethoxy)-2-[(2-morpholinoacetyl)amino]propanoyl]amino]-N-[(1S)-3-methyl-1-[(2R)-2-methyloxirane-2-carbonyl]butyl]-3-phenyl-propanamide]
- Log10GI50 [1]: −7.49
- Log10LC50 [1]: >−4.00
- Log10TGI50 [1]: −6.07
- Log10GI50 [2]: −7.53
- Log10LC50 [2]: >−4.00
- Log10TGI50 [2]: −4.89
- Log10GI50 [3]: −7.77
- Log10LC50 [3]: −7.10
- Log10TGI50 [3]: −7.43
- Log10GI50 [4]: −7.54
- Log10LC50 [4]: >−4.00
- Log10TGI50 [4]: −6.24
- Log10GI50 [5]: −7.45
- Log10LC50 [5]: −5.14
- Log10TGI50 [5]: −6.80
- Log10GI50 [6]: −7.60
- Log10LC50 [6]: −6.49
- Log10TGI50 [6]: −7.17
- Log10GI50 [7]: −7.54
- Log10LC50 [7]: >−4.00
- Log10TGI50 [7]: −6.96
- Log10GI50 [8]: −7.18
- Log10LC50 [8]: >−4.00
- Log10TGI50 [8]: −6.32
- Log10GI50 [9]: −7.62
- Log10LC50 [9]: −5.64
- Log10TGI50 [9]: −7.13
- Log10GI50 [10]: −7.41
- Log10LC50 [10]: >−4.00
- Log10TGI50 [10]: >−4.00
- Log10GI50 [11]: −7.01
- Log10LC50 [11]: >−4.00
- Log10TGI50 [11]: >−4.00
- Log10GI50 [12]: −7.61
- Log10LC50 [12]: −6.34
- Log10TGI50 [12]: −7.03

SMILES: C[C@]1(C(=O)[C@H](Cc2ccccc2)NC(=O)[C@H](Cc2ccccc2)NC(=O)[C@H](COC(F)F)NC(=O)CN2CCOCC2)CO1 [Example 29]
- Log10GI50 [1]: −6.55
- Log10LC50 [1]: >−4.00
- Log10TGI50 [1]: −5.10
- Log10GI50 [2]: −7.38
- Log10LC50 [2]: >−4.00
- Log10TGI50 [2]: >−4.00
- Log10GI50 [3]: −7.64
- Log10LC50 [3]: −6.51
- Log10TGI50 [3]: −7.24
- Log10GI50 [4]: −7.07
- Log10LC50 [4]: >−4.00
- Log10TGI50 [4]: >−4.00
- Log10GI50 [5]: −7.04
- Log10LC50 [5]: >−4.00
- Log10TGI50 [5]: −6.40
- Log10GI50 [6]: −7.22
- Log10LC50 [6]: −6.20
- Log10TGI50 [6]: −6.66
- Log10GI50 [7]: −6.67
- Log10LC50 [7]: >−4.00
- Log10TGI50 [7]: −6.10
- Log10GI50 [8]: −6.81
- Log10LC50 [8]: >−4.00
- Log10TGI50 [8]: −6.00
- Log10GI50 [9]: −7.21
- Log10LC50 [9]: >−4.00
- Log10TGI50 [9]: −5.55
- Log10GI50 [10]: −7.00
- Log10LC50 [10]: >−4.00
- Log10TGI50 [10]: >−4.00
- Log10GI50 [11]: −6.59
- Log10LC50 [11]: >−4.00
- Log10TGI50 [11]: >−4.00
- Log10GI50 [12]: −6.68
- Log10LC50 [12]: −5.47
- Log10TGI50 [12]: −6.11

SMILES: Cc1ncc(C(=O)N[C@@H](COC(F)F)C(=O)N[C@@H](COC(F)F)C(=O)N[C@@H](Cc2ccccc2)C(=O)[C@@]2(C)CO2)s1 [Example 1, 2-methyl-thiazole-5-carboxylic acid ((S)-1-{(S)-1-[(S)-1-benzyl-2-((R)-2-methyloxiranyl)-2-oxo-ethylcarbamoyl]-2-difluoromethoxyethylcarbamoyl}-2-difluoromethoxyethyl)-amide]
- Log10GI50 [1]: −6.71
- Log10TGI50 [1]: −6.06
- Log10GI50 [2]: −7.35
- Log10LC50 [2]: >−4.00
- Log10TGI50 [2]: −4.62
- Log10GI50 [3]: −7.44
- Log10TGI50 [3]: −6.84
- Log10GI50 [4]: −7.33
- Log10LC50 [4]: >−4.00
- Log10TGI50 [4]: −5.44
- Log10GI50 [5]: −6.48
- Log10LC50 [5]: >−4.00
- Log10TGI50 [5]: −4.99
- Log10GI50 [6]: −7.15
- Log10LC50 [6]: −5.47
- Log10TGI50 [6]: −6.34
- Log10GI50 [7]: −6.75
- Log10TGI50 [7]: −6.32
- Log10GI50 [8]: −6.87
- Log10LC50 [8]: >−4.00
- Log10TGI50 [8]: −6.20
- Log10GI50 [9]: −6.85
- Log10LC50 [9]: −5.27
- Log10TGI50 [9]: −5.92
- Log10GI50 [10]: −6.50
- Log10LC50 [10]: >−4.00
- Log10TGI50 [10]: >−4.00
- Log10GI50 [11]: −6.53
- Log10LC50 [11]: >−4.00
- Log10TGI50 [11]: −4.81
- Log10GI50 [12]: −8.00
- Log10LC50 [12]: −4.88
- Log10TGI50 [12]: −6.38

SMILES: C[C@]1(C(=O)[C@H](Cc2ccccc2)NC(=O)[C@H](COC(F)F)NC(=O)[C@H](COC(F)F)NC(=O)CN2CCOCC2)CO1 [Example 26, (S)-N-{(S)-1-[(S)-1-Benzyl-2-((R)-2-methyl-oxiranyl)-2-oxo-ethylcarbamoyl]-2-difluoromethoxyethyl}-3-difluoromethoxy-2-(2-morpholin-4-yl-acetylamino)-propio-namide]
- Log10GI50 [1]: −7.49
- Log10LC50 [1]: >−4.00
- Log10TGI50 [1]: −6.07
- Log10GI50 [2]: −7.53
- Log10LC50 [2]: >−4.00
- Log10TGI50 [2]: −4.89
- Log10GI50 [3]: −7.77
- Log10LC50 [3]: −7.10
- Log10TGI50 [3]: −7.43
- Log10GI50 [4]: −7.54
- Log10LC50 [4]: >−4.00
- Log10TGI50 [4]: −6.24
- Log10GI50 [5]: −7.45
- Log10LC50 [5]: −5.14
- Log10TGI50 [5]: −6.80
- Log10GI50 [6]: −7.60
- Log10LC50 [6]: −6.49
- Log10TGI50 [6]: −7.17
- Log10GI50 [7]: −7.54
- Log10LC50 [7]: >−4.00
- Log10TGI50 [7]: −6.96
- Log10GI50 [8]: −7.18
- Log10LC50 [8]: >−4.00
- Log10TGI50 [8]: −6.32
- Log10GI50 [9]: −7.62
- Log10LC50 [9]: −5.64
- Log10TGI50 [9]: −7.13
- Log10GI50 [10]: −7.41
- Log10LC50 [10]: >−4.00
- Log10TGI50 [10]: >−4.00
- Log10GI50 [11]: −7.01
- Log10LC50 [11]: >−4.00
- Log10TGI50 [11]: >−4.00
- Log10GI50 [12]: −7.61
- Log10LC50 [12]: −6.34
- Log10TGI50 [12]: −7.03
